According to patent publication US11612604B2, “Methods of treating cancer with PLK4 inhibitors” (LUDWIG INSTITUTE FOR CANCER RESEARCH LTD, priority 2017, dated 2023):

The compounds below were run against T1, PLK4 (Homo sapiens, UniProt O00444) (assay: Activity (IC50) of the Table 1 compounds as PLK4 inhibitors). Conditions: Table 1, IC50 class.
T1 sequence (O00444 1-970): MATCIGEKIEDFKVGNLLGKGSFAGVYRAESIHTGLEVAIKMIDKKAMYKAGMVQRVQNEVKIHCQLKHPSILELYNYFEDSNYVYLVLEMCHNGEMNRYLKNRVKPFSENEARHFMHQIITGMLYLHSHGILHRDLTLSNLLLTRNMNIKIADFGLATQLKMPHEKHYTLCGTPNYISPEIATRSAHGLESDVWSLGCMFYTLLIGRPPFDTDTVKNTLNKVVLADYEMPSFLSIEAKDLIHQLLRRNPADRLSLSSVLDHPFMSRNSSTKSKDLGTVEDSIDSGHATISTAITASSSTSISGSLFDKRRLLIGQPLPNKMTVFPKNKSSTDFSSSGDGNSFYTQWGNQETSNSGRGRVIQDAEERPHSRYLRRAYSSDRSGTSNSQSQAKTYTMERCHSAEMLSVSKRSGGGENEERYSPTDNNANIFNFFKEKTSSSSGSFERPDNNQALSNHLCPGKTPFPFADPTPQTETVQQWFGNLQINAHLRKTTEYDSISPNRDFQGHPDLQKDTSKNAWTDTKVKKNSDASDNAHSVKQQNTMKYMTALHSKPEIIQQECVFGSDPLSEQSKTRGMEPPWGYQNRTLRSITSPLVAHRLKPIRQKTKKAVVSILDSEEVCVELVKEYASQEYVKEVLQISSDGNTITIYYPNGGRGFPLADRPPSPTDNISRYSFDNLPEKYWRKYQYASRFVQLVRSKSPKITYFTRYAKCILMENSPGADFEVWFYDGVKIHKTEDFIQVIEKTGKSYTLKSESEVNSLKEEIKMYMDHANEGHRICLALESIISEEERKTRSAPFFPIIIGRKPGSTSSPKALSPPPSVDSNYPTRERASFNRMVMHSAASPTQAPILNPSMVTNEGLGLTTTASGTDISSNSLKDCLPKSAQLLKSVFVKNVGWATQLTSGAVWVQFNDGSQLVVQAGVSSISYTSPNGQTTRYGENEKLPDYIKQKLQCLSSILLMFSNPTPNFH
Format: biochemical

Question: With `Cc1cc(Nc2nc(Sc3ccc(NC(=O)C4CC4)cc3)nc(N3CCCCC3)c2C)n[nH]1` as the compound, how does the IC50 read?
Answer: The IC50 was < 100 nM.

Question: `COc1c(Nc2cc(C)[nH]n2)nc(Sc2ccc(S(=O)(=O)Cc3cccc(C(F)(F)F)c3)cc2)nc1N1CCN(CCN(C)C)CC1` was tested. Which IC50 did it give?
Answer: Its IC50 is < 100 nM.

Question: With `COc1c(Nc2cc(C)[nH]n2)nc(Sc2ccc(S(=O)(=O)Cc3cccc(F)c3F)cc2)nc1N1CCN(CCN(C)C)CC1` as the compound, how does the IC50 read?
Answer: Its IC50 is < 100 nM.

Question: With `CC(=O)Nc1ccc(Sc2nc(Cc3cc(C)[nH]n3)c(C)c(NC3CCN(C)CC3)n2)cc1` as the compound, how does the IC50 read?
Answer: Its IC50 is < 100 nM.

Question: With `CC(=O)Nc1ccc(Sc2nc(Nc3cc(C)[nH]n3)c(C)c(NC3CCNCC3)n2)cc1` as the compound, how does the IC50 read?
Answer: The IC50 was < 100 nM.

Question: Which IC50 does the source give for `COc1c(Nc2cc(C)[nH]n2)nc(Sc2ccc(NC(C)=O)cc2)nc1N1CCN(CC(=O)N(C)C)CC1` here?
Answer: Its IC50 is < 100 nM.

Question: How did the IC50 turn out when `COc1c(Nc2cc(C)[nH]n2)nc(Sc2ccc(NC(C)=O)cc2)nc1NC1CCN(C)CC1` was run?
Answer: The IC50 was < 100 nM.

Question: Which IC50 does the source give for `COc1c(Nc2cc(C)[nH]n2)nc(Sc2ccc(NC(C)=O)cc2)nc1N1CCC(C(=O)N(C)C)CC1` here?
Answer: Its IC50 is < 100 nM.

Question: For `COc1c(Nc2cc(C)[nH]n2)nc(Sc2ccc(S(=O)(=O)Cc3cccc([N+](=O)[O-])c3F)cc2F)nc1N1CCCCC1` [drawing 376], which IC50 is on record?
Answer: The IC50 was < 100 nM.

These compounds were tested on caspase-3/7 activity in 'Sensitive' neuroblastoma and 'Not Sensitive' (RPE1, BT-12, BT-16) cell lines (assay: Caspase activation assay). Conditions: 500 nM centrinone B, four cell cycle durations, compared with centrinone.
Format: cell-based

Question: With `COc1c(Nc2cc(C)[nH]n2)nc(Sc2ccc(S(=O)(=O)Cc3cccc([N+](=O)[O-])c3F)cc2F)nc1N1CCCCC1` [centrinone B] as the compound, how does the caspase activity read?
Answer: The caspase activity was “Comparable levels of caspase activity”.
